Test results: patent publication US20260265238A1, “COMPOUNDS AND PHARMACEUTICAL COMPOSITIONS THAT DEGRADE SWI/SNF-RELATED MATRIX-ASSOCIATED ACTIN-DEPENDENT REGULATOR OF CHROMATIN SUBFAMILY A” (Plexium, Inc., priority 2023, published 2026)

Assays:
[1] = molecular target: T1, SMARCA2-HiBiT HeLa cells (protein which is expressed from the SMARCA2 gene) (Homo sapiens, UniProt P51531); assay: SMARCA2 degradation assay (HiBiT-fusion HeLa cell line, 24 h, luminescence); format: cell-based
T1 construct: protein which is expressed from the SMARCA2 and SMARCA4 genes; host or cells: HeLa (SMARCA2-HiBiT engineered line)
Outline: (§1)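 In this 24-hour cellular degradation readout, HiBiT-tagged HeLa lines received compound at up to typically 10 μM down to 300 pM in 10 points. After lysis with LgBiT and substrate, luminescence signals were used to build dose-response curves for DC50.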

[2] = molecular target: T2, SMARCA4-HiBiT HeLa cells (protein which is expressed from the SMARCA4 gene) (Homo sapiens, UniProt P51532); assay: SMARCA4 degradation assay (HiBiT-fusion HeLa cell line, 24 h, luminescence); format: cell-based
T2 construct: protein which is expressed from the SMARCA2 and SMARCA4 genes; host or cells: HeLa (SMARCA4-HiBiT engineered line)
Outline: as §1

T2 sequence (P51532 whole entry, the tested form may be a part): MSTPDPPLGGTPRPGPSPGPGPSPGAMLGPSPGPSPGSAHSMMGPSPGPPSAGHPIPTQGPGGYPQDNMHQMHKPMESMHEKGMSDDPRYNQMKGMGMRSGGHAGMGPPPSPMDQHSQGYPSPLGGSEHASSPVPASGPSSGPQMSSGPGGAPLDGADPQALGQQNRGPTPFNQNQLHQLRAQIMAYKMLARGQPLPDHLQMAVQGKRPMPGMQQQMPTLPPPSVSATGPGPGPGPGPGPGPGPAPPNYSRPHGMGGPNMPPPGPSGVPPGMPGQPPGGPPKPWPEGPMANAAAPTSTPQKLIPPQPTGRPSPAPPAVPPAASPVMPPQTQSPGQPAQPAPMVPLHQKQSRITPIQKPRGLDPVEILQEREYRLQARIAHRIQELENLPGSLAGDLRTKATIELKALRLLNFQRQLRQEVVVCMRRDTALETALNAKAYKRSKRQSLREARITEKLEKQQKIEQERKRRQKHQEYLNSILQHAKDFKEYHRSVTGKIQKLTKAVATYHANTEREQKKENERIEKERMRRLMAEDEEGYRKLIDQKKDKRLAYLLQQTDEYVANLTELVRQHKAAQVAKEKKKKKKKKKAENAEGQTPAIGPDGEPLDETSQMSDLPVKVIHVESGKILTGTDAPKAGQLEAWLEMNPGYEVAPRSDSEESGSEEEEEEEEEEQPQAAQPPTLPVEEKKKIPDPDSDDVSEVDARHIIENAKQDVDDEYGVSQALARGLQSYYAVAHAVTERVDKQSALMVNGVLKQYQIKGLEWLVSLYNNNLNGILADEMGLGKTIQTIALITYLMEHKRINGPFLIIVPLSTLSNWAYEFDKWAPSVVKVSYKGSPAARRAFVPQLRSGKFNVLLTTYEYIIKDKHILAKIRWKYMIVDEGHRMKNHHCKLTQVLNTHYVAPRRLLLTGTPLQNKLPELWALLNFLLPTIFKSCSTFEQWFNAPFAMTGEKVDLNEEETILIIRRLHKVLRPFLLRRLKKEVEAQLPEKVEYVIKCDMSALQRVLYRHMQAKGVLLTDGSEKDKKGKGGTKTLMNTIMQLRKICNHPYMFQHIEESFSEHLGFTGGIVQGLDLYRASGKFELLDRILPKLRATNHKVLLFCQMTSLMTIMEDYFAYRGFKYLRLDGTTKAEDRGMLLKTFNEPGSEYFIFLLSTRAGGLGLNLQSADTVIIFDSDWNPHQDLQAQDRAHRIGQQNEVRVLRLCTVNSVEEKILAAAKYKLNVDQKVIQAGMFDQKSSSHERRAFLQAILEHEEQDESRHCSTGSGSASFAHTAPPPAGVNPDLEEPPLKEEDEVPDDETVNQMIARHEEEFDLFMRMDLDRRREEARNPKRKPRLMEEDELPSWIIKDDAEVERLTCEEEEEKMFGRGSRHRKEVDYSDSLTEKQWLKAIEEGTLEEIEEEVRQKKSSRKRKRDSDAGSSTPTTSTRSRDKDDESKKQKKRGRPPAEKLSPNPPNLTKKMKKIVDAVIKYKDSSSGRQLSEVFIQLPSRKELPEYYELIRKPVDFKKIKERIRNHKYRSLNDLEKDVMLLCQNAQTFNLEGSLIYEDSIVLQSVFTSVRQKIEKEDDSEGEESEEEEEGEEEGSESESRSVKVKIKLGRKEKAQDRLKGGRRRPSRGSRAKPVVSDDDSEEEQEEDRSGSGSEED
T1 sequence (P51531 whole entry, the tested form may be a part): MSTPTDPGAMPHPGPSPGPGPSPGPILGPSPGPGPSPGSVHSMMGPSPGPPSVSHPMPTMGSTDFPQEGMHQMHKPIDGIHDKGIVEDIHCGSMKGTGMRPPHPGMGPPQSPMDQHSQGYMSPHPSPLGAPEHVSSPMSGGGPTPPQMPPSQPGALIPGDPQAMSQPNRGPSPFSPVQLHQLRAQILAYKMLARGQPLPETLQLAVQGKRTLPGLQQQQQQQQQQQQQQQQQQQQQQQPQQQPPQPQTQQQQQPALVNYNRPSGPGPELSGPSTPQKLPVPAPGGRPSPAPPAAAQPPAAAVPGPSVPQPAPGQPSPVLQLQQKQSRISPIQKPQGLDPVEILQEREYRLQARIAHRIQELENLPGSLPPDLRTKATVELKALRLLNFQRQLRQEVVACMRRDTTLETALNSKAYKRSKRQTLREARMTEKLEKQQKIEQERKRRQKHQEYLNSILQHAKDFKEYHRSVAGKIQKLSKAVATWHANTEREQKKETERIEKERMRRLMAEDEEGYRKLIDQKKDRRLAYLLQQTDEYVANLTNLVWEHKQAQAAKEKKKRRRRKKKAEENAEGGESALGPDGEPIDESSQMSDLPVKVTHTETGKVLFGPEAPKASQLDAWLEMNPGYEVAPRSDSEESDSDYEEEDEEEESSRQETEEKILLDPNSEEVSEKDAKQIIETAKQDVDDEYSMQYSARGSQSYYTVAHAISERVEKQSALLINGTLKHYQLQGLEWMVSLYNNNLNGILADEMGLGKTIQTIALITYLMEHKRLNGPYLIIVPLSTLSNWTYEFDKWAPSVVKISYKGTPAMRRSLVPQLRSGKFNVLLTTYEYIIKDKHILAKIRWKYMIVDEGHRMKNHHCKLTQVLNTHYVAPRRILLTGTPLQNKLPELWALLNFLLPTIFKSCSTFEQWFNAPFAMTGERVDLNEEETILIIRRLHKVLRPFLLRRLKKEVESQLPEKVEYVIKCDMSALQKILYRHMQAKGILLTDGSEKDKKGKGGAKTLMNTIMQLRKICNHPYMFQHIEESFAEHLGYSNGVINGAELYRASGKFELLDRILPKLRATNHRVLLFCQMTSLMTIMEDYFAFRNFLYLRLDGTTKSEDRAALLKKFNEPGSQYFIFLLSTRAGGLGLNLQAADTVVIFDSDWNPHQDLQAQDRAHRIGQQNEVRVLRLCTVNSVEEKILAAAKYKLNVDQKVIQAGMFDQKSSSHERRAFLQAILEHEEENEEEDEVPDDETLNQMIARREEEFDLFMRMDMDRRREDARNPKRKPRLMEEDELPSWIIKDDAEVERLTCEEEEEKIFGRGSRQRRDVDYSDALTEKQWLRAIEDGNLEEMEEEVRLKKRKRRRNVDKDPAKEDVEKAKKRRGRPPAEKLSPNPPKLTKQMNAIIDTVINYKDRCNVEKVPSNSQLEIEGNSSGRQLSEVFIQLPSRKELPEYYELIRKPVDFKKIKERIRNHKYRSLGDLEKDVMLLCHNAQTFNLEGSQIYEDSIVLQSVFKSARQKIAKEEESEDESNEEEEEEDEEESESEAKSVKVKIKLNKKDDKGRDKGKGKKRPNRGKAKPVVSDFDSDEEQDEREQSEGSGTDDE

Row | SMILES | DC50 [1] [nM] | SMARCA2 % Degradation @ 1 μM [1] | DC50 [2] [nM] | inhibition at 1 µM [2] [%]
1 | COCC#Cc1nc(N2CCN(c3cc(-c4ccccc4O)nnc3N)CC[C@H]2C)ccc1C#N [Compound P-400, 6-{(R)-4-[3-amino-6-(o-hydroxyphenyl)-4-pyridazinyl]-7-methyl-1,4-diazepan-1-yl}-2-(3-methoxy-1-propynyl)nicotinonitrile] | 500 to 5000 |  | > 5000 | 
2 | C[C@@H]1CCN(c2cc(-c3ccccc3O)nnc2N)CCN1c1ccnc(C#CCN2CC(F)(F)[C@@H]2C)n1 [Compound P-270, 0-{5-[(R)-4-(2-{3-[(S)-3,3-difluoro-2-methyl-1-azetidinyl]-1-propyny1}-4-pyrimidinyl)-5-methyl-1,4-diazepan-1-yl]-6-amino-3-pyridaziny1} phenol] | 50 to 500 | ++ (++=30-70%) | 50 to 500 | 30 to 70
3 | CC(C)(C)OC(=O)NCC#Cc1nccc(N2CCCN(c3cc(-c4ccccc4O)nnc3N)CCC2)n1 [Compound P-304, 4-(5-{2-[3-(tert-butoxycarbonylamino)-1-propynyl]-4-pyrimidinyl}-1,5-diazocan-1-yl)-6-(o-hydroxyphenyl)-3-pyridazinamine] | 50 to 500 | +++ (+++=>70%) | 50 to 500 | 
4 | Nc1nnc(-c2ccccc2O)cc1N1C2CCC1CN(c1ccnc(C#CCn3cncn3)n1)C2 [Compound P-283, 0-[6-amino-5-(3-{2-[3-(1H-1,2,4-triazol-1-yl)-1-propynyl]-4-pyrimidinyl}-3,8-diazabicyclo[3.2.1]oct-8-yl)-3-pyridazinyl]phenol] | 50 to 500 | ++ (++=30-70%) | 50 to 500 | < 30
5 | CO[C@@H]1CCN(CC#Cc2nccc(N3CCN(c4cc(-c5ccccc5O)nnc4N)CC[C@H]3C)n2)C1 [Compound P-242, o-{5-[(R)-4-(2-{3-[(R)-3-methoxy-1-pyrrolidinyl]-1-propynyl}-4-pyrimidinyl)-5-methyl-1,4-diazepan-1-yl]-6-amino-3-pyridazinyl} phenol] | < 50 | ++ (++=30-70%) | < 50 | 30 to 70
6 | C[C@@H]1CCN(c2cc(-c3ccccc3O)nnc2N)CCN1c1ccnc(C#CC2CC(F)(F)C2)n1 [Compound P-269, 0-{5-[(R)-4-{2-[2-(3,3-difluorocyclobutyl)ethynyl]-4-pyrimidinyl}-5-methyl-1,4-diazepan-1-y1]-6-amino-3-pyridazinyl} phenol] | 50 to 500 | +++ (+++=>70%) | 50 to 500 | > 70
7 | Nc1nnc(-c2ccccc2O)cc1N1C2CCC1CN(c1ccnc(C#CCN3CC4CC3C4)n1)C2 [Compound P-182, o-{6-amino-5-[3-(2-{3-(2-azabicyclo[2.1.1]hex-2-yl)-1-propynyl}-4-pyrimidinyl)-3,8-diazabicyclo[3.2.1]oct-8-yl]-3-pyridazinyl}phenol] | 50 to 500 | ++ (++=30-70%) | 50 to 500 | 30 to 70
8 | Nc1nnc(-c2ccccc2O)cc1OC1CC2CN(c3ccnc(C#CCN4CCOCC4)n3)CC2C1 (centres unmarked) [Compound P-220, o-(6-amino-5-{3-[2-(3-morpholino-1-propynyl)-4-pyrimidinyl]-3-azabicyclo[3.3.0]oct-7-yloxy}-3-pyridazinyl)phenol] | 50 to 500 | +++ (+++=>70%) | 50 to 500 | 30 to 70
9 | CC(C)[C@@H]1COCCN1CC#Cc1nccc(N2CCN(c3cc(-c4ccccc4O)nnc3N)CC[C@H]2C)n1 [Compound P-262, o-{5-[(R)-4-(2-{3-[(R)-3-isopropyl-4-morpholinyl]-1-propynyl}-4-pyrimidinyl)-5-methyl-1,4-diazepan-1-yl]-6-amino-3-pyridazinyl} phenol] | 50 to 500 | +++ (+++=>70%) | 50 to 500 | 30 to 70
10 | CC(C)(C)OC(=O)NCC#Cc1nccc(N2CCC(Oc3cc(-c4ccccc4O)nnc3N)CC2)n1 [Compound P-296, 4-(1-{2-[3-(tert-butoxycarbonylamino)-1-propynyl]-4-pyrimidinyl}-4-piperidyloxy)-6-(o-hydroxyphenyl)-3-pyridazinamine] | 50 to 500 | ++ (++=30-70%) | 50 to 500 | 30 to 70

More lines, now with the values ahead:

Row | DC50 [1] [nM] | SMARCA2 % Degradation @ 1 μM [1] | DC50 [2] [nM] | inhibition at 1 µM [2] [%] | SMILES
11 | 50 to 500 | ++ (++=30-70%) | 50 to 500 | 30 to 70 | Cc1oncc1C(=O)NCC#Cc1nccc(N2CCN(c3cc(-c4ccccc4O)nnc3N)CC2)n1 [Compound P-3, N-[3-(4-{4-[3-amino-6-(2-hydroxyphenyl)pyridazin-4-yl]piperazin-1-yl}pyrimidin-2-yl)prop-2-yn-1-yl]-5-methyl-1,2-oxazole-4-carboxamide]
12 | 50 to 500 | ++ (++=30-70%) | 50 to 500 | 30 to 70 | Nc1nnc(-c2ccccc2O)cc1N1CCN(c2ccnc(C#CCNC(=O)c3coc4ccccc34)n2)CC1 [Compound P-55, N-(3-(4-(4-(3-amino-6-(2-hydroxyphenyl)pyridazin-4-yl)piperazin-1-yl)pyrimidin-2-yl)prop-2-yn-1-yl)benzofuran-3-carboxamide]
13 | 50 to 500 | ++ (++=30-70%) | 50 to 500 | 30 to 70 | C[C@@H](O)C#Cc1nccc(N2CCCN(c3cc(-c4ccccc4O)nnc3N)CC2)n1 [Compound P-322, 0-[5-(4-{2-[(R)-3-hydroxy-1-butynyl]-4-pyrimidinyl}-1,4-diazepan-1-yl)-6-amino-3-pyridazinyl]phenol]
14 | 50 to 500 | ++ (++=30-70%) | < 50 | 30 to 70 | Nc1nnc(-c2ccccc2O)cc1N1CCN(c2ccnc(C#CCNC(=O)c3ccn(CC(F)(F)F)n3)n2)CC1 [Compound P-9, N-[3-(4-{4-[3-amino-6-(2-hydroxyphenyl)pyridazin-4-yl]piperazin-1-yl}pyrimidin-2-yl)prop-2-yn-1-yl]-1-(2,2,2-trifluoroethyl)-1H-pyrazole-3-carboxamidc]
15 | 50 to 500 | +++ (+++=>70%) | 50 to 500 | 30 to 70 | Nc1nnc(-c2ccccc2O)cc1N1CCCN(c2ccnc(C#CCN3CCOC4(CCCC4)C3)n2)CC1 [Compound P-370, 0-{6-amino-5-[4-(2-{3-(6-oxa-9-aza-9-spiro[4.5]decyl)-1-propynyl}-4-pyrimidinyl)-1,4-diazepan-1-yl]-3-pyridazinyl}phenol]
16 | < 50 | +++ (+++=>70%) | 50 to 500 | 30 to 70 | Nc1nnc(-c2ccccc2O)cc1N1CCCN(c2ccnc(C#CCOc3ncco3)n2)CC1 [Compound P-128, 2-(6-amino-5-(4-(2-(3-(oxazol-2-yloxy)prop-1-yn-1-yl)pyrimidin-4-yl)-1,4-diazepan-1-yl)pyridazin-3-yl)phenol]
17 | 50 to 500 | +++ (+++=>70%) | 50 to 500 | > 70 | Nc1nnc(-c2ccccc2O)cc1N1CCCN(c2ccnc(C#CC3COC3)n2)CC1 [Compound P-347, 0-[6-amino-5-(4-{2-[2-(3-oxetanyl)ethynyl]-4-pyrimidinyl}-1,4-diazepan-1-yl)-3-pyridazinyl]phenol]
